# Experiments:
# [1] = tested on: IL-17 production in human blood; test: Effect on IL-17 production in human blood; format: cell-based; conditions: 72 h; 10 μM test compound; human peripheral blood, IL-23 and Dynabeads stimulation, 3 days; read-out: percent inhibition at 10 μM (IL-17 production)
# In short: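 Heparinized healthy-donor whole blood pre-incubated with compound 30 min at 37° C, then stimulated with IL-23 (added as 100 ng/mL solution) plus Dynabeads Human for 3 days at 37° C. Supernatant IL-17 measured by ELISA; values given as percent inhibition at 10 μM compound.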
# IL-17A gene expression = test: Effect on IL-23-induced cytokine expression in mice; format: in vivo, mouse; conditions: 3 mg/kg oral, 30 min before and 8 hr after IL-23; ear of Balb/c mice; versus the negative control group
# [2] = tested on: IL-23-induced mouse psoriasis model; test: IL-23-induced mouse psoriasis model; format: in vivo; conditions: 3 mg/kg oral twice daily, Balb/c mice, versus the negative control group
# Protocol: Effect in an IL-23-Induced Mouse Psoriasis Model
# Mouse IL-23 (500 ng/15 μL, R&D) or PBS (15 μL, negative control group) was administered intradermally in the ear of Balb/c mice (Charles River Japan, male, 7 weeks old) 5 times every other days. Seven hr after IL-23 administration at 8 days after the initial administration (final administration), the mice were anesthetized with isoflurane, and ear thickness was measured with calipers. After the ear thickness was measured, the ear was resected, tissue 8 mm in diameter was punched from an area centering on the IL-23 injection site, and the tissue was weighed. The punched ear tissue was cut in half, and one half was immersion-fixed in 10% neutral buffer formalin solution for use in histopathological evaluation. The other half was immersed in RNAlater (QIAGEN) for at least 18 hr for use in an evaluation of the IL-17A mRNA expression level. The test compound was suspended in 0.5% methylcellulose and administered orally twice daily on consecutive days from 30 min before the initial IL-23 administration to 30 min before the final IL-23 administration.
# The change in ear thickness in this model was evaluated by calculating the difference in measured thickness between before IL-23 administration and 7 hr after the final IL-23 administration. In addition, the formalin-fixed tissue was embedded and sectioned, then stained with hematoxylin-eosin. The degree of acanthosis was then evaluated qualitatively by microscopy (classified with a score of 0 to 4). RNA extraction from the ear tissue and quantitative PCR were performed as follows. As described above, ear tissue treated with RNAlater (QIAGEN) was homogenized in 350 μL of RLT buffer (RNeasy mini kit, QIAGEN) and treated (55° C., 10 min) with Proteinase K (QIAGEN). Total RNA was then extracted according to the RNeasy mini kit protocol. The RNA thus obtained was reverse transcribed into cDNA using the High-Capacity RNA-to-cDNA kit (Applied Biosystems), and the expression of each gene was measured by real-time PCR (Viia7™, Applied Biosystems). The PCR buffer used was TaqMan Fast Advanced Master Mix (Applied Biosystems), and TaqMan Gene Expression Assays (Applied Biosystems) Mm00439618_m1 (IL-17A) and 4352341E (β-actin) were used to detect the genes. The IL-17A gene expression level was normalized to the β-actin gene expression level, and the percent inhibition of IL-17A gene expression with the test compound was then calculated.
# The results (percent inhibition of ear thickness, acanthosis score and IL-17A gene expression with oral administration of the test compound) measured by the above-mentioned method are shown in Table 10.
# [3] = tested on: T cell-transferred mouse colitis model; test: T cell-transferred mouse colitis model; format: in vivo; conditions: 3 mg/kg oral twice daily; SCID mice, 21 days after cell transfer; versus the negative control group
# Text: Effect in a T Cell-Transferred Mouse Colitis Model
# Balb/c mice (Charles River Japan, female, 8 weeks old) were euthanized, and the spleens were resected, mashed in mesh, and passed through cell strainer to prepare a suspension of splenic cells. The mononuclear cell fraction in the splenic cells was isolated by density-gradient centrifugation, and subjected to hemolysis treatment with ammonium chloride buffer solution (Immuno-Biological Laboratories, Co., Ltd.). The naive T-cells were purified using CD4+CD62L+ T Cell Isolation Kit II (Miltenyi Biotec). The naive T-cells (2×10^5 cells/mouse) were intravenously transferred into SCIDmice (CLEA Japan, female, 8 weeks old). The compound was suspended in 0.5% methyl cellulose, and the suspension was orally administered twice daily on consecutive days from the same evening of the cell transfer. The mice were blinded 20 days after the cell transfer, and the symptom of the stool on floorcloth under blind was evaluated by scores of 1 to 4 (1: normal, 2: loose stool, 3: diarrhea (formed), 4: diarrhea (unformed)) 21 days after the cell transfer. […] The large intestine was washed with saline, and the weight was measured.
# The results (percent inhibition of intestinal tract weight and diarrhea score with oral administration of the test compound) measured by the above-mentioned method are shown in Table 11.
# mouse EAE model = test: Mouse EAE model; format: in vivo; conditions: 3 mg/kg oral; C57BL/6J mice; integration value of clinical score for 28 days; versus the negative control group
# Protocol: Effect in a Mouse EAE Model
# . C57BL/6J mice (10 weeks old, female, Charles River Japan) were grouped based on the body weight, and the MOG emulsion was intradermally administered at two point of the joint of dorsal hindlimb so that the dose was 100 μL/site, 200 μL/mouse. In addition, Pertussis toxin (Merck) was intraperitoneally administered twice on the sensitization day and 2 days thereafter in the dose of 400 ng/200 μL/mouse. The body weight was measured twice a week before onset and everyday (excluding holiday) after onset from the sensitization day. The clinical score was evaluated by the following standard scores of 0 to 5 (0: normal, 0.5: partial paralysis of tail, 1: complete paralysis of tail, 2: partial paralysis of hindlimb, 3: paralysis of lower body, 4: partial paralysis of forelimb, 5: paralysis of both forelimbs or death) by observation everyday (excluding holiday) after the beginning of onset.
# The percent inhibition of the clinical score of the test compound administration group relative to that of the control group was calculated using integration value of the clinical score for 28 days.
# The results (percent inhibition of clinical score with oral administration of the test compound) measured by the above-mentioned method are shown in Table 12.
structure (smiles),measurement,setting,value
"COc1ccc2c(n1)CCN(C(=O)[C@H]1C[C@@H](CC(=O)O)C1)[C@H]2C(=O)Nc1cc(F)c2c(c1)CCC2(C)C [Example 15, (cis-3-(((5R)-5-((7-fluoro-1,1-dimethyl-2,3-dihydro-1H-inden-5-yl)carbamoyl)-2-methoxy-7,8-dihydro-1,6-naphthyridin-6(5H)-yl)carbonyl)cyclobutyl)acetic acid]",inhibition at 10 µM,[1],94%
same,percent inhibition of IL-17A gene expression,IL-17A gene expression,99%
same,percent inhibition of acanthosis score,[2],53%
same,percent inhibition of ear thickness,[2],61%
same,percent inhibition of IL-17A expression,[2]; ear tissue,93%
same,percent inhibition of diarrhea score,[3],81%
same,percent inhibition of intestinal tract weight,[3],58%
same,percent inhibition of clinical score,mouse EAE model,64%
